Test system: Alternaria brassicae
Test: Antifungal activity against Alternaria brassicae assessed as percent inhibition at 100 ug/ml
Type: functional
Molecule `Cc1cccc2c1c(/C=N/NC(=N)N)cn2S(=O)(=O)c1ccccc1` has an inhibition at 100 µg/mL of 21.1%.
`CC/C(=N\NC(=N)N)c1cn(S(=O)(=O)c2ccccc2)c2ccccc12` gave an inhibition at 100 µg/mL of 43.3%.
Work on `Cc1ccc2c(/C=N/NC(=N)N)cn(S(=O)(=O)c3ccccc3)c2c1` yielded an inhibition at 100 µg/mL of 48.4%.
For `Cc1ccc(S(=O)(=O)n2cc(/C=N/NC(=N)N)c3c(C)cccc32)cc1`, the inhibition at 100 µg/mL was 49.1%.
`N=C(N)N/N=C/c1cn(S(=O)(=O)c2cccc([N+](=O)[O-])c2)c2ccccc12` showed an inhibition at 100 µg/mL of 30%.
In the case of `N=C(N)N/N=C/c1cn(S(=O)(=O)c2ccccc2)c2ccccc12`, the inhibition at 100 µg/mL is reported as 38.8%.
For `Cc1ccc(S(=O)(=O)n2cc(/C=N/NC(=N)N)c3cc(C#N)ccc32)cc1`, the inhibition at 100 µg/mL was 10.4%.
Molecule `C/C(=N\NC(=N)N)c1cn(S(=O)(=O)c2ccc(C)cc2)c2ccccc12` has an inhibition at 100 µg/mL of 37.9%.
Molecule `C/C(=N\NC(=N)N)c1cn(S(=O)(=O)c2ccccc2)c2cccc(C)c12` has an inhibition at 100 µg/mL of 52%.
`Cc1cc(O)no1` [HYMEXAZOL] gave an inhibition at 100 µg/mL of 58%.

Test system: Bipolaris sorokiniana
Test: Antifungal activity against Bipolaris sorokiniana assessed as percent inhibition at 100 ug/ml
Type: functional
Molecule `Cc1cccc2c1c(/C=N/NC(=N)N)cn2S(=O)(=O)c1ccccc1` has an inhibition at 100 µg/mL of 36.9%.
Work on `CC/C(=N\NC(=N)N)c1cn(S(=O)(=O)c2ccccc2)c2ccccc12` yielded an inhibition at 100 µg/mL of 69.2%.
In the case of `Cc1ccc2c(/C=N/NC(=N)N)cn(S(=O)(=O)c3ccccc3)c2c1`, the inhibition at 100 µg/mL is reported as 59.5%.
For `Cc1ccc(S(=O)(=O)n2cc(/C=N/NC(=N)N)c3c(C)cccc32)cc1`, the inhibition at 100 µg/mL was 72.6%.
Work on `N=C(N)N/N=C/c1cn(S(=O)(=O)c2cccc([N+](=O)[O-])c2)c2ccccc12` yielded an inhibition at 100 µg/mL of 36.9%.
`N=C(N)N/N=C/c1cn(S(=O)(=O)c2ccccc2)c2ccccc12` showed an inhibition at 100 µg/mL of 66.5%.
`Cc1ccc(S(=O)(=O)n2cc(/C=N/NC(=N)N)c3cc(C#N)ccc32)cc1` showed an inhibition at 100 µg/mL of 17%.
`C/C(=N\NC(=N)N)c1cn(S(=O)(=O)c2ccc(C)cc2)c2ccccc12` gave an inhibition at 100 µg/mL of 58.4%.
Molecule `C/C(=N\NC(=N)N)c1cn(S(=O)(=O)c2ccccc2)c2cccc(C)c12` has an inhibition at 100 µg/mL of 82.3%.
In the case of `Cc1cc(O)no1` [HYMEXAZOL], the inhibition at 100 µg/mL is reported as 61.9%.

Test system: Alternaria alternata
Test: Antifungal activity against Alternaria alternata assessed as percent inhibition at 100 ug/ml
Type: functional
`Cc1cccc2c1c(/C=N/NC(=N)N)cn2S(=O)(=O)c1ccccc1` showed an inhibition at 100 µg/mL of 42.5%.
`CC/C(=N\NC(=N)N)c1cn(S(=O)(=O)c2ccccc2)c2ccccc12` showed an inhibition at 100 µg/mL of 73.8%.
`Cc1ccc2c(/C=N/NC(=N)N)cn(S(=O)(=O)c3ccccc3)c2c1` gave an inhibition at 100 µg/mL of 69.2%.
Work on `Cc1ccc(S(=O)(=O)n2cc(/C=N/NC(=N)N)c3c(C)cccc32)cc1` yielded an inhibition at 100 µg/mL of 70.8%.
With `N=C(N)N/N=C/c1cn(S(=O)(=O)c2cccc([N+](=O)[O-])c2)c2ccccc12` the inhibition at 100 µg/mL was 51.1%.
In the case of `N=C(N)N/N=C/c1cn(S(=O)(=O)c2ccccc2)c2ccccc12`, the inhibition at 100 µg/mL is reported as 61.5%.
With `Cc1ccc(S(=O)(=O)n2cc(/C=N/NC(=N)N)c3cc(C#N)ccc32)cc1` the inhibition at 100 µg/mL was 15.2%.
Molecule `C/C(=N\NC(=N)N)c1cn(S(=O)(=O)c2ccc(C)cc2)c2ccccc12` has an inhibition at 100 µg/mL of 62.9%.
`C/C(=N\NC(=N)N)c1cn(S(=O)(=O)c2ccccc2)c2cccc(C)c12` showed an inhibition at 100 µg/mL of 79.2%.
For `Cc1cc(O)no1` [HYMEXAZOL], the inhibition at 100 µg/mL was 70.8%.

Test system: Fusarium oxysporum f. sp. vasinfectum
Test: Antifungal activity against Fusarium oxysporum f. sp. vasinfectum assessed as percent inhibition at 100 ug/ml
Type: functional
`Cc1cccc2c1c(/C=N/NC(=N)N)cn2S(=O)(=O)c1ccccc1` gave an inhibition at 100 µg/mL of 19.9%.
`CC/C(=N\NC(=N)N)c1cn(S(=O)(=O)c2ccccc2)c2ccccc12` gave an inhibition at 100 µg/mL of 56.7%.
For `Cc1ccc2c(/C=N/NC(=N)N)cn(S(=O)(=O)c3ccccc3)c2c1`, the inhibition at 100 µg/mL was 40%.
Work on `Cc1ccc(S(=O)(=O)n2cc(/C=N/NC(=N)N)c3c(C)cccc32)cc1` yielded an inhibition at 100 µg/mL of 41.6%.
For `N=C(N)N/N=C/c1cn(S(=O)(=O)c2cccc([N+](=O)[O-])c2)c2ccccc12`, the inhibition at 100 µg/mL was 28.6%.
Work on `N=C(N)N/N=C/c1cn(S(=O)(=O)c2ccccc2)c2ccccc12` yielded an inhibition at 100 µg/mL of 47.8%.
In the case of `Cc1ccc(S(=O)(=O)n2cc(/C=N/NC(=N)N)c3cc(C#N)ccc32)cc1`, the inhibition at 100 µg/mL is reported as 13%.
For `C/C(=N\NC(=N)N)c1cn(S(=O)(=O)c2ccc(C)cc2)c2ccccc12`, the inhibition at 100 µg/mL was 58.3%.
With `C/C(=N\NC(=N)N)c1cn(S(=O)(=O)c2ccccc2)c2cccc(C)c12` the inhibition at 100 µg/mL was 64.9%.
Work on `Cc1cc(O)no1` [HYMEXAZOL] yielded an inhibition at 100 µg/mL of 63.2%.

Test system: not listed separately
Test: Antifungal activity against Fusarium oxysporum f. sp. cucumerinum assessed as percent inhibition at 100 ug/ml
Type: functional
Work on `Cc1cccc2c1c(/C=N/NC(=N)N)cn2S(=O)(=O)c1ccccc1` yielded an inhibition of 26.3%.
Work on `CC/C(=N\NC(=N)N)c1cn(S(=O)(=O)c2ccccc2)c2ccccc12` yielded an inhibition of 48.4%.
`Cc1ccc2c(/C=N/NC(=N)N)cn(S(=O)(=O)c3ccccc3)c2c1` gave an inhibition of 41%.
`Cc1ccc(S(=O)(=O)n2cc(/C=N/NC(=N)N)c3c(C)cccc32)cc1` showed an inhibition of 44.7%.
`N=C(N)N/N=C/c1cn(S(=O)(=O)c2cccc([N+](=O)[O-])c2)c2ccccc12` gave an inhibition of 28%.
For `N=C(N)N/N=C/c1cn(S(=O)(=O)c2ccccc2)c2ccccc12`, the inhibition was 33.7%.
For `Cc1ccc(S(=O)(=O)n2cc(/C=N/NC(=N)N)c3cc(C#N)ccc32)cc1`, the inhibition was 6.55%.
For `C/C(=N\NC(=N)N)c1cn(S(=O)(=O)c2ccc(C)cc2)c2ccccc12`, the inhibition was 37.2%.
With `C/C(=N\NC(=N)N)c1cn(S(=O)(=O)c2ccccc2)c2cccc(C)c12` the inhibition was 63.1%.
In the case of `Cc1cc(O)no1` [HYMEXAZOL], the inhibition is reported as 60%.

Test system: Fusarium graminearum
Test: Antifungal activity against Fusarium graminearum assessed as percent inhibition at 100 ug/ml
Type: functional
Molecule `Cc1cccc2c1c(/C=N/NC(=N)N)cn2S(=O)(=O)c1ccccc1` has an inhibition at 100 µg/mL of 26%.
Work on `CC/C(=N\NC(=N)N)c1cn(S(=O)(=O)c2ccccc2)c2ccccc12` yielded an inhibition at 100 µg/mL of 50.5%.
For `Cc1ccc2c(/C=N/NC(=N)N)cn(S(=O)(=O)c3ccccc3)c2c1`, the inhibition at 100 µg/mL was 47.8%.
`Cc1ccc(S(=O)(=O)n2cc(/C=N/NC(=N)N)c3c(C)cccc32)cc1` showed an inhibition at 100 µg/mL of 48.2%.
`N=C(N)N/N=C/c1cn(S(=O)(=O)c2cccc([N+](=O)[O-])c2)c2ccccc12` gave an inhibition at 100 µg/mL of 31.4%.
In the case of `N=C(N)N/N=C/c1cn(S(=O)(=O)c2ccccc2)c2ccccc12`, the inhibition at 100 µg/mL is reported as 46.3%.
With `Cc1ccc(S(=O)(=O)n2cc(/C=N/NC(=N)N)c3cc(C#N)ccc32)cc1` the inhibition at 100 µg/mL was 13.3%.
`C/C(=N\NC(=N)N)c1cn(S(=O)(=O)c2ccc(C)cc2)c2ccccc12` showed an inhibition at 100 µg/mL of 48.8%.
Work on `C/C(=N\NC(=N)N)c1cn(S(=O)(=O)c2ccccc2)c2cccc(C)c12` yielded an inhibition at 100 µg/mL of 52.3%.
`Cc1cc(O)no1` [HYMEXAZOL] gave an inhibition at 100 µg/mL of 68%.

Test system: Pyricularia oryzae
Test: Antifungal activity against Pyricularia oryzae assessed as percent inhibition at 100 ug/ml
Type: functional
`Cc1cccc2c1c(/C=N/NC(=N)N)cn2S(=O)(=O)c1ccccc1` gave an inhibition at 100 µg/mL of 46.8%.
With `CC/C(=N\NC(=N)N)c1cn(S(=O)(=O)c2ccccc2)c2ccccc12` the inhibition at 100 µg/mL was 75.6%.
With `Cc1ccc2c(/C=N/NC(=N)N)cn(S(=O)(=O)c3ccccc3)c2c1` the inhibition at 100 µg/mL was 64.2%.
`Cc1ccc(S(=O)(=O)n2cc(/C=N/NC(=N)N)c3c(C)cccc32)cc1` showed an inhibition at 100 µg/mL of 72.2%.
Molecule `N=C(N)N/N=C/c1cn(S(=O)(=O)c2cccc([N+](=O)[O-])c2)c2ccccc12` has an inhibition at 100 µg/mL of 42.3%.
`N=C(N)N/N=C/c1cn(S(=O)(=O)c2ccccc2)c2ccccc12` showed an inhibition at 100 µg/mL of 57.8%.
With `Cc1ccc(S(=O)(=O)n2cc(/C=N/NC(=N)N)c3cc(C#N)ccc32)cc1` the inhibition at 100 µg/mL was 16.3%.
Molecule `C/C(=N\NC(=N)N)c1cn(S(=O)(=O)c2ccc(C)cc2)c2ccccc12` has an inhibition at 100 µg/mL of 52.3%.
Work on `C/C(=N\NC(=N)N)c1cn(S(=O)(=O)c2ccccc2)c2cccc(C)c12` yielded an inhibition at 100 µg/mL of 79.6%.
Work on `Cc1cc(O)no1` [HYMEXAZOL] yielded an inhibition at 100 µg/mL of 75.1%.
